# Measured values taken from PMC7827406, “Structure–Activity Relationship (SAR) Study of Spautin-1 to Entail the Discovery of Novel NEK4 Inhibitors” (International Journal of Molecular Sciences, 2021).
# Like-named read-outs stand apart in the source and are kept apart here.
# Assays:
# Experiment in all cases: biochemical
# Parameters in all cases: Eurofins KinaseProfiler full panel at Km ATP, residual kinase activity (%) relative to DMSO
# eEF-2K(h) = biological target: T1, eEF-2K(h) (Homo sapiens, UniProt O00418)
# T1 construct: gene EEF2K
# T1 sequence (O00418 1-725): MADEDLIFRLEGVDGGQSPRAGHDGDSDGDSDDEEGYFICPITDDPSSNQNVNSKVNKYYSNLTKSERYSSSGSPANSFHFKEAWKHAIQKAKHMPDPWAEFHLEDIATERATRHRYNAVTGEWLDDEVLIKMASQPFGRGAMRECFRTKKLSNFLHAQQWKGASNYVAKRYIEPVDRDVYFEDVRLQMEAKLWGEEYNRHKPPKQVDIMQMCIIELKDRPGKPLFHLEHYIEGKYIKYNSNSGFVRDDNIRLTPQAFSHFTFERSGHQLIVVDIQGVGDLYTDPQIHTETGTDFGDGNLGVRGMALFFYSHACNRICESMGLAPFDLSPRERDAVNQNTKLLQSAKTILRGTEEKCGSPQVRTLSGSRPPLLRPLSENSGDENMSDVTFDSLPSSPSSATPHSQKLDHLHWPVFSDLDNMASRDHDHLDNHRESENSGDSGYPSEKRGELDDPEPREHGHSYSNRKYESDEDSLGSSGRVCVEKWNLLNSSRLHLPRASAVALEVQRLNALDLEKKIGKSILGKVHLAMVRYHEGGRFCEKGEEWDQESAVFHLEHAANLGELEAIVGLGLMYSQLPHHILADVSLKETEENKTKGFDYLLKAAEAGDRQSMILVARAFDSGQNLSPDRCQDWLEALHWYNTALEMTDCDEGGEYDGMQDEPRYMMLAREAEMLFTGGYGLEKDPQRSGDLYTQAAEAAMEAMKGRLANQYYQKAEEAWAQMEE
# Summary of the method: (§1)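 Radiometric kinase activity assays were run with ATP at Km and compounds at 10 µM, and remaining activity (%) was reported. A separate competitive binding screen measured DNA-tagged kinase displaced from immobilized active-site ligands by qPCR, giving percent kinase still bound at 10 µM compound in DMSO.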
# PDGFRα(D842V)(h) = biological target: T2, PDGFRα(D842V)(h) (Homo sapiens, UniProt P16234, D842V)
# T2 construct: gene PDGFRA
# T2 sequence (P16234 whole entry D842V): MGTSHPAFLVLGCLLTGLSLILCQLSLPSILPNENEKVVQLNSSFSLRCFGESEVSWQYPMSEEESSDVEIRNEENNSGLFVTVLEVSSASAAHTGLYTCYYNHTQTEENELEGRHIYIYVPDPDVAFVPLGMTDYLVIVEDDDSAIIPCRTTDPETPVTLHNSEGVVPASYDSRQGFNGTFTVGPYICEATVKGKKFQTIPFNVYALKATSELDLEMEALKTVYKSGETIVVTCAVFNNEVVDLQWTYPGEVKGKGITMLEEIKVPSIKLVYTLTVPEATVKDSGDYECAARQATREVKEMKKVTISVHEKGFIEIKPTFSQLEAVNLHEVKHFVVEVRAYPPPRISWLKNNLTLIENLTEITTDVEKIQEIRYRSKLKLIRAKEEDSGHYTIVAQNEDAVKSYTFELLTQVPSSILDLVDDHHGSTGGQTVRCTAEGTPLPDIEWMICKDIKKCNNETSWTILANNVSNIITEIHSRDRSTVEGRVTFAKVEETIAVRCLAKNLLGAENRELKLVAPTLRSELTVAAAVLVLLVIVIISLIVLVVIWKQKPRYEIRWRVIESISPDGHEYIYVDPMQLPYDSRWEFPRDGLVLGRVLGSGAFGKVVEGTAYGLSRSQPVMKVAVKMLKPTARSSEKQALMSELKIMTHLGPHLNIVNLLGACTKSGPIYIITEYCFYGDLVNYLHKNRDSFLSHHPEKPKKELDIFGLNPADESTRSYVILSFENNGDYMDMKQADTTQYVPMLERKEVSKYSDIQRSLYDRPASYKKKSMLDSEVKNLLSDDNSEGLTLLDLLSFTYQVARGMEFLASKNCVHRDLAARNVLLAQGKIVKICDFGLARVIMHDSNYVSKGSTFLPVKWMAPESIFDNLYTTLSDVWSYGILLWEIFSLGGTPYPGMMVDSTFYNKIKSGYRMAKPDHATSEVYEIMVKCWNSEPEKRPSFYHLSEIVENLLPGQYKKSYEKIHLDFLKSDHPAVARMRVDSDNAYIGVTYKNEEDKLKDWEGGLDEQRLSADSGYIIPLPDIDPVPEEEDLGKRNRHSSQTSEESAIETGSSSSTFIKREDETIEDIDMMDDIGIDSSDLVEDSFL
# Summary of the method: as §1
# LATS2(h) = biological target: T3, LATS2(h) (Homo sapiens, UniProt Q9NRM7)
# T3 sequence (Q9NRM7 1-1088): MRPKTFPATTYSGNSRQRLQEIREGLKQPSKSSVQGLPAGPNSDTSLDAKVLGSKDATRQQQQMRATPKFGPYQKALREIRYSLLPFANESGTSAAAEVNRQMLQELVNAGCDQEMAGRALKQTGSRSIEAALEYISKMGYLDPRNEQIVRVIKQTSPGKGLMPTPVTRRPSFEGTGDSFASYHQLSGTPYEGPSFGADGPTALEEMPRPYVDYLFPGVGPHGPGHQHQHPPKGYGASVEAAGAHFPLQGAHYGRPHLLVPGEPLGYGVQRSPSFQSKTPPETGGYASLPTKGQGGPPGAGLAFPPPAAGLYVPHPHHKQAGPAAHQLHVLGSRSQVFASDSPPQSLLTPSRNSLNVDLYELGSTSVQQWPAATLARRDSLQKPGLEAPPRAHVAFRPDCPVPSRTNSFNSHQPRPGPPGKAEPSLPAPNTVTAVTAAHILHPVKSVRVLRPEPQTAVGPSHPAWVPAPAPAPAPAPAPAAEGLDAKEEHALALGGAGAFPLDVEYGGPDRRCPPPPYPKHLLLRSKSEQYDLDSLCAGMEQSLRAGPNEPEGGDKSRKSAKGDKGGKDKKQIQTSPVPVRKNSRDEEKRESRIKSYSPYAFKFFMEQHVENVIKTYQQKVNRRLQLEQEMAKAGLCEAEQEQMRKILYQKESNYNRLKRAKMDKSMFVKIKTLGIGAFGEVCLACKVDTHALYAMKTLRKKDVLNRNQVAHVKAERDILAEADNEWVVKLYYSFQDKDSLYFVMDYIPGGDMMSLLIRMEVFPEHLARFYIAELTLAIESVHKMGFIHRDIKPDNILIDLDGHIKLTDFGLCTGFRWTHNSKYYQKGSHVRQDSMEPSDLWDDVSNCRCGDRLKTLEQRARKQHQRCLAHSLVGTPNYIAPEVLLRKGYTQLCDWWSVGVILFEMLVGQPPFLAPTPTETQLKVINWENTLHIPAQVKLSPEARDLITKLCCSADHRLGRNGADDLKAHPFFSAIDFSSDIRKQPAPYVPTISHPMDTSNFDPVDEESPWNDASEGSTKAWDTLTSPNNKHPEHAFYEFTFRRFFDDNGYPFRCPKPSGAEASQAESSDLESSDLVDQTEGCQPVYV
# Summary of the method: as §1
# ROCK-I(h) = biological target: T4, ROCK-I(h) (Homo sapiens, UniProt Q13464)
# T4 construct: gene ROCK1
# T4 sequence (Q13464 whole entry): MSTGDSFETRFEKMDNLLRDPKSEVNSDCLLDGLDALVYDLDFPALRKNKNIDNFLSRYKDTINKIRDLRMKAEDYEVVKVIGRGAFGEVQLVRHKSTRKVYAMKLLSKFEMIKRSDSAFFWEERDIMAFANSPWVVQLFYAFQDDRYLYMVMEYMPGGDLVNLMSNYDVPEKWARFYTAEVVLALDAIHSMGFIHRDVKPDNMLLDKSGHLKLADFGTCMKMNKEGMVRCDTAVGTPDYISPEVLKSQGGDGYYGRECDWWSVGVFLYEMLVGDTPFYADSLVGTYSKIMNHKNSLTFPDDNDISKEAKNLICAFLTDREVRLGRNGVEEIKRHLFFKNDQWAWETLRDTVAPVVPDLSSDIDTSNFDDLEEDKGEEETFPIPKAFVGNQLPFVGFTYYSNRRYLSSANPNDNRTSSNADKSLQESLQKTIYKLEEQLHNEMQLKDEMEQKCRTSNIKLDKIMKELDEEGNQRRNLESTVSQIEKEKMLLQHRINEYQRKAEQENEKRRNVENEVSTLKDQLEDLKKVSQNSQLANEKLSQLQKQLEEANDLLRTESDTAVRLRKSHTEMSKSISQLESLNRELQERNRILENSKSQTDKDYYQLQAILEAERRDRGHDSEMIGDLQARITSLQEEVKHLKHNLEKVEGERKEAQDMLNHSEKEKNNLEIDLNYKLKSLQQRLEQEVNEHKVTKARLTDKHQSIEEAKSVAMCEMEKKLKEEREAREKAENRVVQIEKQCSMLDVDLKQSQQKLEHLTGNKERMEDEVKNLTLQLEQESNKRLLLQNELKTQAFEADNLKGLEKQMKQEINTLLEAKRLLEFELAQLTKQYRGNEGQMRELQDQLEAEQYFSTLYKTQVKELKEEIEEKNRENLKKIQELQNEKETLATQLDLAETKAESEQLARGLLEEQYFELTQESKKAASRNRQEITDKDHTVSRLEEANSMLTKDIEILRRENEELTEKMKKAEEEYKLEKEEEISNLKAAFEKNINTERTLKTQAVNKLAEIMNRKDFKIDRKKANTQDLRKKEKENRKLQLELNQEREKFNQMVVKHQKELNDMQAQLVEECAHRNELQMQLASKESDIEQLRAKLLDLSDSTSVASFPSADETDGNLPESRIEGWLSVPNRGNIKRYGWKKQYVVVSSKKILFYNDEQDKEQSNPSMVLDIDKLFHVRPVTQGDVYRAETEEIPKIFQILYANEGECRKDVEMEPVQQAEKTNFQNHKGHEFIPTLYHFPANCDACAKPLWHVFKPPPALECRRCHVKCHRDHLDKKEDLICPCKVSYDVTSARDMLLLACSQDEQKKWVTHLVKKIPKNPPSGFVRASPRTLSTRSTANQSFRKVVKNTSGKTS
# Summary of the method: as §1
# CDKL1(h) = CDKL1(h) (Homo sapiens, UniProt Q00532)
# CDKL1(h), sequence (Q00532 whole entry): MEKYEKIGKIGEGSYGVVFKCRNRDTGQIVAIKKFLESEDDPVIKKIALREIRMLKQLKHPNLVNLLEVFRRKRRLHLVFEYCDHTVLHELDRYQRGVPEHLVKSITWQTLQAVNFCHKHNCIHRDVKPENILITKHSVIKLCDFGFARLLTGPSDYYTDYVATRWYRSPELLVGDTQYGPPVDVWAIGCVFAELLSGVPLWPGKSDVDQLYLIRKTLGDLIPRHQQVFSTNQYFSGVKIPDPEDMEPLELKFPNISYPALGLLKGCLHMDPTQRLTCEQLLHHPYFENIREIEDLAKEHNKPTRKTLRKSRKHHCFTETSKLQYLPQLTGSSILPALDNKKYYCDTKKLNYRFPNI
# Summary of the method: as §1
# PKBγ(h) = biological target: T5, PKBγ(h) (Homo sapiens, UniProt Q9Y243)
# T5 construct: gene AKT3
# T5 sequence (Q9Y243 whole entry): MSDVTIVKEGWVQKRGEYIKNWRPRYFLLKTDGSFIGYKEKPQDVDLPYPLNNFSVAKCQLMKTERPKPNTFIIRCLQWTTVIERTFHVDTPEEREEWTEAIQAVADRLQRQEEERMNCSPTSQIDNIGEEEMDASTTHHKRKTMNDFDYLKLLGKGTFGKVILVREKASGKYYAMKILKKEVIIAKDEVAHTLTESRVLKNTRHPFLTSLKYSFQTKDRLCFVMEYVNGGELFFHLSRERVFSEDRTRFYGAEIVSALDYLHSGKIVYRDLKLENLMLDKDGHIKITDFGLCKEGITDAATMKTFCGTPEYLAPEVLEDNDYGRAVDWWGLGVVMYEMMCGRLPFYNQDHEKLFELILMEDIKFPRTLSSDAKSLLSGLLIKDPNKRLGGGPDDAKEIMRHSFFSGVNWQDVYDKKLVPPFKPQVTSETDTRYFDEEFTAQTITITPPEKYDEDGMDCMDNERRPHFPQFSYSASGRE
# Summary of the method: as §1
# NEK6(h) = NEK6(h) (Homo sapiens, UniProt Q9HC98)
# NEK6(h), sequence (Q9HC98 whole entry): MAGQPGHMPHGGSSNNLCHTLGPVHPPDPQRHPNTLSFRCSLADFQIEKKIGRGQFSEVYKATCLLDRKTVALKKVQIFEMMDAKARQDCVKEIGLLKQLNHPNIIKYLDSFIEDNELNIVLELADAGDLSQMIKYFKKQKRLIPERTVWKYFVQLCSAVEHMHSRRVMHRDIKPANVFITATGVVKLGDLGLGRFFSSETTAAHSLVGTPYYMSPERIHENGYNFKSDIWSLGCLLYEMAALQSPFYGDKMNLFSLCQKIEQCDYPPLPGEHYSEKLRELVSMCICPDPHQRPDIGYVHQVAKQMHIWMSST
# Summary of the method: as §1
# STK32C(h) = STK32C(h) (Homo sapiens, UniProt Q86UX6)
# STK32C(h), sequence (Q86UX6 whole entry): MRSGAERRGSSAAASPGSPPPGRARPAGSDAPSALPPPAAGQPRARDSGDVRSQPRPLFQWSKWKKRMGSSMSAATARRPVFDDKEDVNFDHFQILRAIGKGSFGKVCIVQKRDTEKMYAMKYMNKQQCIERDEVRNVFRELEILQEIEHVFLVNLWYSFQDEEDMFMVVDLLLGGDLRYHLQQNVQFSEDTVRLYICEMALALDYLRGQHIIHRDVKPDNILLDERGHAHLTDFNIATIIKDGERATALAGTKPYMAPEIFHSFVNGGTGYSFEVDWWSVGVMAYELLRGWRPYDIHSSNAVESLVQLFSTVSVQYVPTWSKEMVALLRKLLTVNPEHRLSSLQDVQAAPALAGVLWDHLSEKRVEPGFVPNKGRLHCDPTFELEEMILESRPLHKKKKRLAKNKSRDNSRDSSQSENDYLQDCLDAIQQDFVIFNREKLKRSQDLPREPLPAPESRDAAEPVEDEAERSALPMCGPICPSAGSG
# Summary of the method: as §1
# [1] = read-out: Residual activity (%) Spautin-1 5aa
# [2] = read-out: Residual activity (%) 5as
# [3] = read-out: Residual activity (%) 5at
# [4] = read-out: Residual activity (%) 5ay
smiles,measurement,setting,value
"Fc1ccc(CNc2ncnc3ccc(F)cc23)cc1 [5aa, 6-Fluoro-N-(4-fluorobenzyl)-4-Quinazolinamine]",remaining activity at 10 µM,eEF-2K(h); [1],87%
same,remaining activity at 10 µM,PDGFRα(D842V)(h); [1],114%
same,remaining activity at 10 µM,LATS2(h); [1],94%
same,remaining activity at 10 µM,ROCK-I(h); [1],91%
same,remaining activity at 10 µM,CDKL1(h); [1],94%
same,remaining activity at 10 µM,PKBγ(h); [1],101%
same,remaining activity at 10 µM,NEK6(h); [1],103%
same,remaining activity at 10 µM,STK32C(h); [1],106%
"Fc1ccc(CCNc2ncnc3ccc(F)cc23)cc1 [5as, 6-Fluoro-N-[2-(4-Fluorophenyl)Ethyl]-4-Quinazolinamine]",remaining activity at 10 µM,eEF-2K(h); [2],85%
same,remaining activity at 10 µM,PDGFRα(D842V)(h); [2],92%
same,remaining activity at 10 µM,LATS2(h); [2],74%
same,remaining activity at 10 µM,ROCK-I(h); [2],98%
same,remaining activity at 10 µM,CDKL1(h); [2],111%
same,remaining activity at 10 µM,PKBγ(h); [2],102%
same,remaining activity at 10 µM,NEK6(h); [2],94%
same,remaining activity at 10 µM,STK32C(h); [2],95%
"Fc1ccc2ncnc(NCCc3ccc(Cl)cc3)c2c1 [5at, N-[2-(4-Chlorophenyl)Ethyl]-6-Fluoro-4-Quinazolinamine]",remaining activity at 10 µM,eEF-2K(h); [3],85%
same,remaining activity at 10 µM,PDGFRα(D842V)(h); [3],86%
same,remaining activity at 10 µM,LATS2(h); [3],75%
same,remaining activity at 10 µM,ROCK-I(h); [3],93%
same,remaining activity at 10 µM,CDKL1(h); [3],111%
same,remaining activity at 10 µM,PKBγ(h); [3],105%
same,remaining activity at 10 µM,NEK6(h); [3],79%
same,remaining activity at 10 µM,STK32C(h); [3],106%
"COc1ccc2ncnc(Nc3cccc(F)c3)c2c1 [5ay, N-(3-Fluorophenyl)-6-Methoxy-4-Quinazolinamine]",remaining activity at 10 µM,eEF-2K(h); [4],79%
same,remaining activity at 10 µM,PDGFRα(D842V)(h); [4],50%
same,remaining activity at 10 µM,LATS2(h); [4],72%
same,remaining activity at 10 µM,ROCK-I(h); [4],96%
same,remaining activity at 10 µM,CDKL1(h); [4],119%
same,remaining activity at 10 µM,PKBγ(h); [4],89%
same,remaining activity at 10 µM,NEK6(h); [4],91%
same,remaining activity at 10 µM,STK32C(h); [4],102%
